The results in this text go back to ChEMBL document CHEMBL5029178, “Discovery of 3-amino-4-{(3S)-3-[(2-ethoxyethoxy)methyl]piperidin-1-yl}thieno[2,3-b]pyridine-2-carboxamide (DS96432529): A potent and orally active bone anabolic agent” (Bioorg Med Chem Lett, 2021).

The structures appear in SMILES notation. In brackets after ≈: the same amount, converted by molar mass. Activity calls are given as the source filed them. The calls are words filed in the database; no cut-off is given here.

One data set has as its system ST-2. Briefly: […] of alkaline phosphatase activity in mouse ST-2 cells. The data set is classed as cell-based.
A short description of data set [1]: Metabolic stability in human liver microsomes assessed as compound remaining at 0.5 mg/ml measured after 30 mins. The data set is classed as ADME, Microsome. The settings on record: read-out: Stability.
The next data set deals with CYP2C19 (Homo sapiens, UniProt P33261). Briefly: Inhibition of CYP2C19 (unknown origin) at 10 uM. Format: ADME.
CYP2C19, sequence (P33261 whole entry): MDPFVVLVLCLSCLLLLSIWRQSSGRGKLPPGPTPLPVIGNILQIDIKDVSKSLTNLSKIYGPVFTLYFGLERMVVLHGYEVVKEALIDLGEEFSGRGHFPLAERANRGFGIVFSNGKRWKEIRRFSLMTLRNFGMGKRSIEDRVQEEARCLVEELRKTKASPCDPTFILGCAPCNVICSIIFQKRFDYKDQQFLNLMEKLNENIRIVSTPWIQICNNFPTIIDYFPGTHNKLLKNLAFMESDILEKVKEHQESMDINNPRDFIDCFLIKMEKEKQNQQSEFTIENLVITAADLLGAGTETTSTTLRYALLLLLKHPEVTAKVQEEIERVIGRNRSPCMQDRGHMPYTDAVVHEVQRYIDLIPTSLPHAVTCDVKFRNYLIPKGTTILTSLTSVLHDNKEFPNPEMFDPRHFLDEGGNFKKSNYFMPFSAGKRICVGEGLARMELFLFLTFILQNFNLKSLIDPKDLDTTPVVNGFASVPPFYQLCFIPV
A further data set addresses T1, CYP1A2 (Homo sapiens, UniProt P05177).
T1 sequence (P05177 whole entry): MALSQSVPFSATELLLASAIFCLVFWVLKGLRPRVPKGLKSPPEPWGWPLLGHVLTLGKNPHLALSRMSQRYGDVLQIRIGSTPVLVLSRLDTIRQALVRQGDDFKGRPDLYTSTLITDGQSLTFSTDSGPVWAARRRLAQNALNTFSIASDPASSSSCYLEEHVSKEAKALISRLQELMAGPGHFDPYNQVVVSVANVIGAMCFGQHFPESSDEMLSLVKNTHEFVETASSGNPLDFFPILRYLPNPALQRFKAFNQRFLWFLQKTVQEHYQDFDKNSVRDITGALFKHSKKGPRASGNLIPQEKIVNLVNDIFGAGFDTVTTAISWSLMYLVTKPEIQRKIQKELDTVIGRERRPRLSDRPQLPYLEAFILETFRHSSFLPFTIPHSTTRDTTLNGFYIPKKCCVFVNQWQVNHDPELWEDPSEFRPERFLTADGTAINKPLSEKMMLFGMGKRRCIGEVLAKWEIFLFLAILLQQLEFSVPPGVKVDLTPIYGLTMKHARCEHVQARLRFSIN
As to the kind of experiment: Inhibition of CYP1A2 (unknown origin) at 10 uM. Format: ADME.

The next data set deals with CYP2D6 (Homo sapiens, UniProt P10635). As to the kind of experiment: Inhibition of CYP2D6 (unknown origin) at 10 uM. Format: ADME.
CYP2D6, sequence (P10635 whole entry): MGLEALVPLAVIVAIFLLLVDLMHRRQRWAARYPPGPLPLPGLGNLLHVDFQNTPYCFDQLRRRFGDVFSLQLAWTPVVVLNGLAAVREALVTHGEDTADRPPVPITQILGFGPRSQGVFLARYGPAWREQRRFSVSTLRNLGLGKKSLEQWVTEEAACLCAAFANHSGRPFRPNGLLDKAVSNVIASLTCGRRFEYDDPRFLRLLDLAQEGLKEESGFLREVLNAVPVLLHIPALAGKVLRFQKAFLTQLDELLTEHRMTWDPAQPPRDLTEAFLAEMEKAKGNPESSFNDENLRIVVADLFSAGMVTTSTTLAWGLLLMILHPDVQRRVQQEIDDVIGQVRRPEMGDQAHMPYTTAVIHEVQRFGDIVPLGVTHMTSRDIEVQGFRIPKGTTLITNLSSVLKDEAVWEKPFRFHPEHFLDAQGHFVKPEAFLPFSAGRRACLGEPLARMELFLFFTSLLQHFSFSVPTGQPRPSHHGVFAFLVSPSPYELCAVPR
The next data set has as its target CYP2C9 (Homo sapiens, UniProt P11712). As to the kind of experiment: Inhibition of CYP2C9 (unknown origin) at 10 uM. Format: ADME.
Data set [2] concerns the target T2, CYP3A4 (Homo sapiens, UniProt P08684). As to the kind of experiment: Time dependent inhibition of CYP3A4 in human liver microsomes assessed as parent compound remaining at 100 uM. The following applies: read-out: TDI. The data set is classed as ADME. (Microsomes from liver hold many membrane-bound enzymes, among them those of drug oxidation.)
The target in data set [3] is T2, CYP3A4. As to the kind of experiment: Inhibition of CYP3A4 (unknown origin) at 10 uM. The data set is classed as ADME.
Data set [4] can be described thus: AUC (0 to 8 hrs) in Fischer 344 rat at 3 mg/kg, po. The following applies: in vivo. More on the design: time < 8 hr, route oral, dose 3 mg/kg. The data set is classed as ADME, organism-based.
A short description of data set [5]: Cmax in Fischer 344 rat at 3 mg/kg, po. Format: ADME, organism-based. More on the design: route oral, dose 3 mg/kg. The following applies: in vivo.
The subject of data set [6] is Rattus norvegicus. As to the kind of experiment: Anti-osteoporosis activity in ovariectomized rat assessed as […] in areal bone mineral density in total humerus at 1 mg/kg, po qd measured after 14 weeks. Format: functional, organism-based.
Data set [7] relates to Rattus norvegicus. Briefly: Anti-osteoporosis activity in ovariectomized rat assessed as […] in areal bone mineral density in humeral diaphysis at 1 mg/kg, po qd measured after 14 weeks. Format: functional, organism-based.
Data set [8] in a line: Solubility of the compound in JP2 fluid at pH 6.8. Format: physicochemical.
Data set [9] deals with Rattus norvegicus. Briefly: Anti-osteoporosis activity in ovariectomized rat assessed as increase in bone strength at 1 mg/kg, po. The data set is classed as functional, organism-based.
The test system of data set [10] is Rattus norvegicus. As to the kind of experiment: Antiosteoporotic activity against OVX-induced rat model assessed as increase in osteocalcin secretion in serum at 3 mg/kg/day. The data set is classed as functional, organism-based.
Data set [11] deals with Rattus norvegicus. Briefly: Antiosteoporotic activity against OVX-induced rat model assessed as increase in deo-xypyridinoline level at 0.3 mg/kg/day. Format: functional, organism-based.
For data set [12], the system named is Rattus norvegicus. Briefly: Anti-osteoporosis activity in ovariectomized rat assessed as […] in areal bone mineral density in humeral diaphysis at 3 mg/kg, po qd measured after 14 weeks. The data set is classed as functional, organism-based.
The nature of data set [13]: AUC in Fischer 344 rat at 100 mg/kg, po. Format: ADME, organism-based. Details: dose 100 mg/kg. The settings on record: in vivo.
Data set [14] can be described thus: Effective permeability coefficient at pH 5 by PAMPA method. Format: ADME. The settings on record: read-out: Peff. On the technique in general: The PAMPA barrier holds no transporters, so it reflects passive diffusion.
The nature of data set [15]: Effective permeability coefficient at pH 7.4 by PAMPA method. Format: ADME. The settings on record: read-out: Peff.

As a reminder, the inhibition is the change of the read-out against control, counted positive when it falls. Higher therefore signals a strong effect. What is called AUC(0-t) is the area under the concentration-time curve up to a stated or last time point. As usually defined, the Cmax is the highest concentration seen after dosing. By solubility is commonly meant how much of the substance goes into solution per volume. A higher solubility goes with much dissolved substance. For orientation: AUC means the area under the concentration-time curve, a measure of exposure. Higher therefore signals high exposure.

T2 sequence (P08684 whole entry): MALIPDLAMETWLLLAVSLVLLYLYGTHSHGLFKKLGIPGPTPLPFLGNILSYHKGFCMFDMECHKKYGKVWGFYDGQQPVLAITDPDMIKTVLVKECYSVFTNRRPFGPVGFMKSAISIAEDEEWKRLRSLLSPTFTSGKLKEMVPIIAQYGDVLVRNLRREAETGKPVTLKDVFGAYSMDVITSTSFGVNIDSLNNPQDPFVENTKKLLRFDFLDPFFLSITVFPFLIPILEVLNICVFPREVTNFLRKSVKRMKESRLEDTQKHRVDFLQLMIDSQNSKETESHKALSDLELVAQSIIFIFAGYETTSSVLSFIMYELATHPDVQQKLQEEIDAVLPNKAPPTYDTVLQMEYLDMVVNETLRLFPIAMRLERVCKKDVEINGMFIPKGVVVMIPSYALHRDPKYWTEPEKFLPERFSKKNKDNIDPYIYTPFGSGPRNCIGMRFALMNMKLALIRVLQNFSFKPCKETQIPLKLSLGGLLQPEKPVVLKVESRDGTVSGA
CYP2C9, sequence (P11712 whole entry): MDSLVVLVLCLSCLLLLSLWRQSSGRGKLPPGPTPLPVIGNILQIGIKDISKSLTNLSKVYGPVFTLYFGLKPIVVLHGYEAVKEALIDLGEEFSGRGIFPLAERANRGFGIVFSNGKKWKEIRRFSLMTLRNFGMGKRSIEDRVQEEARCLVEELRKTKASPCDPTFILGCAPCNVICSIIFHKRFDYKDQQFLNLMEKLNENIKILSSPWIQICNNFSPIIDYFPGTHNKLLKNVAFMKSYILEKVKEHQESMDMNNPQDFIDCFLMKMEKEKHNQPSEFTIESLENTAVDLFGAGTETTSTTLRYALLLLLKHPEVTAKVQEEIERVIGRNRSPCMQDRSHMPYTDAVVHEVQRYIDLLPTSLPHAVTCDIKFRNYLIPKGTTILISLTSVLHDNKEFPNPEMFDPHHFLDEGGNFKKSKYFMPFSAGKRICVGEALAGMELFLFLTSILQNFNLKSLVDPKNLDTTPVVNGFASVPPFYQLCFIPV

The compound `CN(C)c1ccnc2sc(C(N)=O)c(N)c12` displayed an EC200 in the data set with ST-2 of 0.17 µg/mL.
Still for that read-out and setting: as for `CCOCC1CCCN(c2ccnc3sc(C(N)=O)c(N)c23)C1` (stereo not drawn), the figure is 0.031 µg/mL.
Turning to `Cn1cnnc1COC[C@H]1CCCN(c2ccnc3sc(C(N)=O)c(N)c23)C1`, the EC200 in the data set with ST-2 was found to be 0.168 µg/mL.
In the case of `NC(=O)c1sc2nccc(N3CCCCC3)c2c1N`, in [1], the remaining at 0.5 h stood at 20%. In the data set on ST-2, the EC200 turned out to be 0.067 µg/mL. In addition, the inhibition at 10 µM against CYP2C19 is 0%; at CYP1A2 it was 62%; at CYP2D6, 9%; at CYP2C9, 4%; against CYP3A4 [3] it was 23%. For the same compound, on CYP3A4 [2], the remaining at 100 µM amounted to 92%.
Compound `CC(C)OC[C@H]1CCCN(c2ccnc3sc(C(N)=O)c(N)c23)C1` returned an EC200 in the data set with ST-2 of 0.057 µg/mL.
As to `Cn1ccnc1COC[C@H]1CCCN(c2ccnc3sc(C(N)=O)c(N)c23)C1`, the EC200 in the data set with ST-2 was 0.019 µg/mL. In data set [4], this compound showed an AUC(0-t) at 8 h of 45 ng·h/mL. The compound further returned a Cmax in data set [5] of 15.1 ng/mL.
Compound `NC(=O)c1sc2nccc(N3CCCC(CO)C3)c2c1N` (stereo not drawn) gave an EC200 with ST-2 of 0.076 µg/mL.
Still for that read-out and setting: as for `COCC1CCCN(c2ccnc3sc(C(N)=O)c(N)c23)C1` (racemic), the figure is 0.049 µg/mL.
For the compound `CC1CCCN(c2ccnc3sc(C(N)=O)c(N)c23)C1` (stereo not drawn), the remaining at 0.5 h in [1] worked out at 18%. In the data set with ST-2, this compound came in with an EC200 of 0.024 µg/mL.
In the case of `NC(=O)c1sc2nccc(N3CCCN(c4ccccc4)CC3)c2c1N`, the EC200 with ST-2 came out at 0.051 µg/mL. For the same compound, at CYP3A4 [2], the remaining at 100 µM worked out at 28%.
Consider `NC(=O)c1sc2nccc(N3CCCC(O)C3)c2c1N` (stereo not drawn), for which the EC200 in the data set on ST-2 was found to be 0.17 µg/mL.
Same read-out and setting: with `COCCC1CCCN(c2ccnc3sc(C(N)=O)c(N)c23)C1` (stereo not drawn) the figure was 0.26 µg/mL; with `CC1CCN(c2ccnc3sc(C(N)=O)c(N)c23)CC1`, 0.23 µg/mL.
Consider `CCOCCOC[C@H]1CCCN(c2ccnc3sc(C(N)=O)c(N)c23)C1`, for which the EC200 in the data set on ST-2 worked out at 0.024 µg/mL. Besides, the inhibition at 10 µM against CYP2C19 worked out at 15%; against CYP1A2, 33%; at CYP2D6, 2%; on CYP2C9 it was 2%; against CYP3A4 [3], 10%. Further, the outcome with Rattus norvegicus [6], in the data set with Rattus norvegicus [7], with Rattus norvegicus [9], in the data set with Rattus norvegicus [10], in the data set on Rattus norvegicus [11] and with Rattus norvegicus [12] was Active. This compound also displayed an AUC(0-t) at 8 h in data set [4] of 2000 ng·h/mL. The amount in solution in data set [8] (solubility) came to 500 µg/mL (≈ 1320 µM). Moreover, the remaining at 100 µM at CYP3A4 [2] is 82%. This compound showed a Cmax in data set [5] of 804 ng/mL.
In the data set with ST-2, `CN(C)C(=O)C1CCCN(c2ccnc3sc(C(N)=O)c(N)c23)C1` (stereo not drawn) registered an EC200 greater than 0.3 µg/mL.
`COC[C@@H]1CCCN(c2ccnc3sc(C(N)=O)c(N)c23)C1` showed an EC200 with ST-2 of 0.25 µg/mL.
Regarding `Cc1nsc(COC[C@H]2CCCN(c3ccnc4sc(C(N)=O)c(N)c34)C2)n1`, the EC200 in the data set with ST-2 is 0.05 µg/mL.
Turning to `COCC1CCCN(c2ccnc3sc(C(N)=O)c(N)c23)C1` (stereo in doubt; 9g) [listing 1 of 2 here], the remaining at 0.5 h in [1] is 66%.
In the case of `NC(=O)c1sc2nccc(N3CCCC(C(=O)O)C3)c2c1N` (stereo not drawn), the EC200 in the data set on ST-2 was greater than 0.3 µg/mL. The compound further showed an AUC in [13] of 18800 ng·h/mL.
`COC[C@H]1CCCN(c2ccnc3sc(C(N)=O)c(N)c23)C1` showed an EC200 in the data set on ST-2 of 0.022 µg/mL. This compound also returned an area under the curve AUC(0-t) at 8 h in data set [4] of 227 ng·h/mL. Moreover, the concentration in solution in data set [8] (solubility) came to 220 µg/mL (≈ 687 µM). In data set [5], this compound returned a Cmax of 80.5 ng/mL.
In turn, `CCCOCC1CCCN(c2ccnc3sc(C(N)=O)c(N)c23)C1` (stereo not drawn) yielded an EC200 in the data set on ST-2 of 0.095 µg/mL.
In the data set with ST-2, `CCOCCOC[C@H]1CCCN(c2cc(C)nc3sc(C(N)=O)c(N)c23)C1` registered an EC200 of 0.03 µg/mL. Moreover, the AUC(0-t) at 8 h in data set [4] was found to be 1350 ng·h/mL. Besides, the solubility in data set [8] turned out to be 560 µg/mL (≈ 1430 µM). Besides, the Cmax in data set [5] came out at 357 ng/mL.
Regarding `Cc1cc(Oc2ccc(CCCC(=O)N(C)C)cc2F)c2c(N)c(C(N)=O)sc2n1`, in the data set with ST-2, the EC200 was found to be 0.0005 µg/mL.
`Cc1cc(N2CCC[C@H](COCc3nc(C)no3)C2)c2c(N)c(C(N)=O)sc2n1` showed an EC200 with ST-2 of 0.026 µg/mL. In data set [4], this compound gave an AUC(0-t) at 8 h of 722 ng·h/mL. The compound also yielded a Cmax in [5] of 188 ng/mL.
Take `Cc1noc(COC[C@H]2CCCN(c3ccnc4sc(C(N)=O)c(N)c34)C2)n1`: the EC200 in the data set with ST-2 is 0.017 µg/mL. In [4], this compound displayed an AUC(0-t) at 8 h of 563 ng·h/mL. In [5], this compound registered a Cmax of 158 ng/mL.
`COCC1CCCN(c2ccnc3sc(C(N)=O)c(N)c23)C1` (stereo in doubt; 9g) [listing 2 of 2 here] came in with an EC200 in the data set with ST-2 of 0.049 µg/mL.
Still for that read-out and setting: as for `COCCCC1CCCN(c2ccnc3sc(C(N)=O)c(N)c23)C1` (stereo not drawn), the figure is 0.026 µg/mL.
With `NC(=O)c1sc2nccc(N3CCC[C@H](COCC(=O)N4CCOCC4)C3)c2c1N`, the EC200 in the data set with ST-2 turned out to be 0.014 µg/mL. The compound further gave an AUC(0-t) at 8 h in [4] of 756 ng·h/mL. In addition, in data set [5], the Cmax came to 217 ng/mL.
Turning to `NC(=O)c1sc2nccc(N3CCC[C@H](COCCO)C3)c2c1N`, the EC200 in the data set with ST-2 was 0.017 µg/mL. Besides, the Papp turned out to be 2.8 ×10⁻⁶ cm/s in data set [14] and 2.9 ×10⁻⁶ cm/s in data set [15]. Besides, in [4], the AUC(0-t) at 8 h came out at 320 ng·h/mL. The compound further came in with a Cmax in data set [5] of 114 ng/mL.
`COC(C)[C@H]1CCCN(c2ccnc3sc(C(N)=O)c(N)c23)C1` (stereo partly drawn) yielded an EC200 in the data set on ST-2 of 0.146 µg/mL.
